Measurements from US7109380B2, “Cyclopentenedione antifungal compounds and methods for their use” (The University of Mississippi, priority 2004, dated 2006).
pIC50: −log10 of the molar value. Converted amounts (≈) assume the structure as drawn. One block for each compound: values may come before it.

How the values were obtained:
Format in all cases: cell-based
[1] = system: M. intracellulare ATCC 23068; experiment: In vitro antibacterial assay (modified method of Franzblau, Alamar Blue); conditions: Mycobacterium intracellulare, ATCC23068, M. intracellulare ATCC 23068
[2] = system: Colletotrichum acutatum; experiment: 96-well microtiter fungal growth assay;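 also: percent relative to untreated positive growth controls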
Description: (§1) Pathogen collection. Isolates of Colletotrichum acutatum Simmonds, Colletotrichum fragariae Brooks, and Colletotrichum gloeosporioides (Penz.) Penz. & Sacc. in Penz. were obtained from B. J. Smith, USDA, ARS, Small Fruit Research Station, Poplarville, Mass. Colletotrichum fragariae (isolate CF63), C. acutatum (isolate CAGoff), and C. gloeosporioides (isolate CG162) were used for all pathogen and bioautography studies. Isolate CF63 is one of the most virulent isolates at infecting strawberry plants and inducing both crown and fruit rot (Smith and Black, 1990). CF63, CAGoff, and CG162 were used as standard test isolates because of our extensive knowledge of these isolates and their known fungicide sensitivity profiles in both bioautography and microtiter formats. The three Colletotrichum species were isolated from strawberry (Fragaria xananassa Duchesne). Botrytis cinerea Pers.:Fr, was isolated from commercial grape (Vitis vinifera L.) and Fusarium oxysporum Schlechtend:Fr from orchid (Cynoches sp.) by David E. Wedge, USDA ARS Natural Products Utilization Research Unit. Phomopsis viticola (Sacc.) and P. obscurans (Ellis & Everh.) Sutton were from Mike A. Ellis, Ohio State University, Wooster, Ohio. Fungi were grown on potato-dextrose agar (PDA, Difco, Detroit Mich.) in 9 cm petri dishes and incubated in a growth chamber at 24±2° C. and under cool-white fluorescent lights ([…]·m^−2·sec^−1 light) with 12-h photoperiod.
(§2) Inoculum preparation. Conidia were harvested from 7–10 day-old cultures by flooding plates with 5 mL of sterile distilled water and dislodging conidia by softly brushing the colonies with an L-shaped glass rod. Conidial suspensions were filtered through sterile miracloth (Calbiochem-Novabiochem Corp., La Jolla Calif.) to remove mycelia. Conidia concentrations were determined photometrically, from a standard curve based on the absorbance at 625 nm and suspensions were then adjusted with sterile distilled water to a concentration of 1.0×10^6 conidia/mL.
(§3) Microtiter assay. A standardized 96-well microtiter plate assay developed for discovery of natural product fungicidal agents. A 96-well microtiter assay was used to determine sensitivity of B. cinerea, C. acutatum, C. fragariae, C. gloeosporioides, F. oxysporum, Phomopsis viticola, and P. obscurans to the various antifungal agents in comparison with known fungicidal standards. Vinclozolin, captan, and thiabendazole, which represent three different modes of action, were used as standards in this experiment. Each fungus was challenged in a dose-response format using test compounds where the final treatment concentrations were 0.3, 3.0 and 30.0 μM. Microtiter plates (Nunc MicroWell, untreated; Roskilde, Denmark) were covered with a plastic lid and incubated in a growth chamber at 24±1 C and 12 h photoperiod under 60±5 μmol light. Growth was then evaluated by measuring absorbance of each well at 620 nm using a microplate photometer (Packard Spectra Count, Packard Instrument Co., Downers Grove, Ill.).
(§4) Microbioassay Experimental Design. Chemical sensitivity of each fungus 96-well microtiter assay is used to determine sensitivity of B. cinerea, C. acutatum, C. fragariae, C. gloeosporioides, F. oxysporum, Phomopsis viticola, and P. obscurans. Each chemical is evaluated in duplicate at each dose (0.3, 3.0 and 30.0 μM) and repeated twice in time. Sixteen wells containing broth and inoculum serves as positive controls, eight wells containing solvent at the appropriate concentration and broth without inoculum are used as negative controls. Mean absorbance values and standard errors is used to evaluate fungal growth at 48 hrs and 72 hrs except for P. obscurans and P. viticola the data are recorded at 120 hrs. […] Treatments are arranged as a split-plot design replicated twice in time. Whole-plots were fungal isolates and sub-plots are chemicals. Each dose level and response time is analyzed separately. […]

[3] = system: Colletotrichum gloeosporioides; experiment: 96-well microtiter fungal growth assay;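 also: percent relative to untreated positive growth controls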
Description: as §1, §2, §3, §4

[4] = system: Fusarium oxysporum; experiment: 96-well microtiter fungal growth assay;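 also: percent relative to untreated positive growth controls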
Description: as §1, §2, §3, §4

[5] = system: Botrytis cinerea; experiment: 96-well microtiter fungal growth assay;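 also: percent relative to untreated positive growth controls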
Description: as §1, §2, §3, §4

[6] = system: Colletotrichum fragariae; experiment: 96-well microtiter fungal growth assay;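 also: percent relative to untreated positive growth controls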
Description: as §1, §2, §3, §4

[7] = system: Phomopsis viticola; experiment: 96-well microtiter fungal growth assay;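 as to Mean percent fungal growth inhibition of Phomopsis viticola: percent relative to untreated positive growth controls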
Description: as §1, §2, §3
(§5) Microbioassay Experimental Design. Chemical sensitivity of each fungus 96-well microtiter assay is used to determine sensitivity of B. cinerea, C. acutatum, C. fragariae, C. gloeosporioides, F. oxysporum, Phomopsis viticola, and P. obscurans. Each chemical is evaluated in duplicate at each dose (0.3, 3.0 and 30.0 μM) and repeated twice in time. Sixteen wells containing broth and inoculum serves as positive controls, eight wells containing solvent at the appropriate concentration and broth without inoculum are used as negative controls. […] Treatments are arranged as a split-plot design replicated twice in time. Whole-plots were fungal isolates and sub-plots are chemicals. Each dose level and response time is analyzed separately. The SAS system's analysis of variance procedure (Statistical Analysis System, Cary, N.C.) is used to identify significant factors and Fisher's protected LSD is used to separate means.

[8] = system: Phomopsis obscurans; experiment: 96-well microtiter fungal growth assay
Description: as §1, §2, §3, §5

MIC [1]: 0.63 µg/mL (≈ 1.9 µM)
SMILES: O=C(O)c1cn(C2CC2)c2cc(N3CCNCC3)c(F)cc2c1=O [CIP, ciprofloxacin, reference compound]
IC50 ([1]; read-out: IC50 (50% inhibitory concentration)): 0.3 µg/mL (≈ 0.905 µM) | MBC ([1]; read-out: MBC (Minimum Bactericidal Concentration)): 1.25 µg/mL (≈ 3.77 µM)

SMILES: O=C1C2CC=CCC2C(=O)N1SC(Cl)(Cl)Cl (stereo not drawn) [Captan]
Mean percent fungal growth inhibition of Colletotrichum acutatum ([2]; 0.3 μm, 48 hrs): 42.5 ± 8.8% | Mean percent fungal growth inhibition of Colletotrichum acutatum ([2]; 0.3 μm, 72 hrs): 35.4 ± 6.1% | Mean percent fungal growth inhibition of Colletotrichum acutatum ([2]; 3.0 μm, 48 hrs): −98.0 ± 0.9% | Mean percent fungal growth inhibition of Colletotrichum acutatum ([2]; 3.0 μm, 72 hrs): −94.1 ± 3.0% | Mean percent fungal growth inhibition of Colletotrichum acutatum ([2]; 30 μm, 48 hrs): −98.6 ± 0.5% | Mean percent fungal growth inhibition of Colletotrichum acutatum ([2]; 30 μm, 72 hrs): −99.7 ± 0.2% | Mean percent fungal growth inhibition of Colletotrichum gloeosporoides ([3]; 0.3 μm, 48 hrs): 31.5 ± 7.3% | Mean percent fungal growth inhibition of Colletotrichum gloeosporoides ([3]; 0.3 μm, 72 hrs): 38.6 ± 4.5% | Mean percent fungal growth inhibition of Colletotrichum gloeosporoides ([3]; 3.0 μm, 48 hrs): −97.3 ± 1.5% | Mean percent fungal growth inhibition of Colletotrichum gloeosporoides ([3]; 3.0 μm, 72 hrs): −95.2 ± 1.9% | Mean percent fungal growth inhibition of Colletotrichum gloeosporoides ([3]; 30 μm, 48 hrs): −98.4 ± 0.5% | Mean percent fungal growth inhibition of Colletotrichum gloeosporoides ([3]; 30 μm, 72 hrs): −98.6 ± 1.7% | Mean percent fungal growth inhibition of Fusarium oxysporum ([4]; 0.3 μm, 48 hrs): 13.6 ± 3.5% | Mean percent fungal growth inhibition of Fusarium oxysporum ([4]; 0.3 μm, 72 hrs): 12.0 ± 2.2% | Mean percent fungal growth inhibition of Fusarium oxysporum ([4]; 3.0 μm, 48 hrs): −50.0 ± 2.8% | Mean percent fungal growth inhibition of Fusarium oxysporum ([4]; 3.0 μm, 72 hrs): −5.4 ± 4.4% | Mean percent fungal growth inhibition of Fusarium oxysporum ([4]; 30 μm, 48 hrs): −99.4 ± 0.3% | Mean percent fungal growth inhibition of Fusarium oxysporum ([4]; 30 μm, 72 hrs): −99.5 ± 0.4% | Mean percent fungal growth inhibition of Botrytis cinerea ([5]; 0.3 μm, 48 hrs): 3.1 ± 26.7% | Mean percent fungal growth inhibition of Botrytis cinerea ([5]; 0.3 μm, 72 hrs): 3.4 ± 5.8% | Mean percent fungal growth inhibition of Botrytis cinerea ([5]; 3.0 μm, 48 hrs): −45.9 ± 22.2% | Mean percent fungal growth inhibition of Botrytis cinerea ([5]; 3.0 μm, 72 hrs): −46.1 ± 5.6% | Mean percent fungal growth inhibition of Botrytis cinerea ([5]; 30 μm, 48 hrs): −76.4 ± 13.4% | Mean percent fungal growth inhibition of Botrytis cinerea ([5]; 30 μm, 72 hrs): −98.7 ± 0.9% | Mean percent fungal growth inhibition of Colletotrichum fragariae ([6]; 0.3 μm, 48 hrs): 18.1 ± 2.7% | Mean percent fungal growth inhibition of Colletotrichum fragariae ([6]; 0.3 μm, 72 hrs): −17.5 ± 15.6% | Mean percent fungal growth inhibition of Colletotrichum fragariae ([6]; 3.0 μm, 48 hrs): −96.2 ± 1.0% | Mean percent fungal growth inhibition of Colletotrichum fragariae ([6]; 3.0 μm, 72 hrs): −74.0 ± 9.3% | Mean percent fungal growth inhibition of Colletotrichum fragariae ([6]; 30 μm, 48 hrs): −99.7 ± 1.0% | Mean percent fungal growth inhibition of Colletotrichum fragariae ([6]; 30 μm, 72 hrs): −91.4 ± 5.2% | Mean percent fungal growth inhibition of Phomopsis viticola ([7]; 0.3 μm, 120 hrs): −118.5 ± 198.7% | Mean percent fungal growth inhibition of Phomopsis viticola ([7]; 3.0 μm, 120 hrs): −99.8 ± 38.2% | Mean percent fungal growth inhibition of Phomopsis viticola ([7]; 3.0 μm, 144 hrs): −95.7 ± 26.0% | Mean percent fungal growth inhibition of Phomopsis viticola ([7]; 30 μm, 120 hrs): −100.0 ± 0.0% | Mean percent fungal growth inhibition of Phomopsis viticola ([7]; 30 μm, 144 hrs): −67.8 ± 21.5% | pIC50 ([7]; Diaporthe ampelina, 72 h, read-out: IC50 (growth inhibition)): > 5.51 | Percent change in fungal growth vs control (negative = inhibition) ([8]; 0.3 μm, 120 hrs): −37.3 ± 6.6% | Percent change in fungal growth vs control (negative = inhibition) ([8]; 0.3 μm, 144 hrs): −30.9 ± 6.3% | Percent change in fungal growth vs control (negative = inhibition) ([8]; 3.0 μm, 120 hrs): −96.0 ± 1.8% | Percent change in fungal growth vs control (negative = inhibition) ([8]; 3.0 μm, 144 hrs): −98.3 ± 0.6% | Percent change in fungal growth vs control (negative = inhibition) ([8]; 30 μm, 120 hrs): −100 ± 0.0% | Percent change in fungal growth vs control (negative = inhibition) ([8]; 30 μm, 144 hrs): −99.6 ± 0.2%
